For series [1], the system named is Influenza A virus. Kind of series: Antiviral activity against Influenza A virus J/8178/09 infected in MDCK cells assessed as inhibition of virus-induced cytopathic effect at 50 uM after 48 hrs. Format: functional. Particulars: for inhibition at 50 µM: Influenza A virus, J/8178/09, MDCK, 48 h. In general terms: Damage to the host cells serves as the signal in cytopathic effect assays.

Series [2] deals with Influenza A virus. Kind of series: Antiviral activity against Influenza A virus (A/Hong Kong/1/1968(H3N2)) infected in MDCK cells assessed as inhibition of virus-induced cytopathic effect at 50 uM after 48 hrs. The class given is functional. Particulars: for inhibition at 50 µM: Influenza A virus, MDCK, 48 h.
Series [3] can be described thus: Cytotoxicity against MDCK cells after 72 hrs. Format: cell-based, Canis lupus familiaris. The conditions noted are these: dog.
A short description of series [4]: Inhibition of Clostridium perfringens neuraminidase by fluorescence based assay.
Series [5] in a line: Inhibition of Clostridium perfringens neuraminidase by chemiluminescence based assay.
A short description of series [6]: Induction of fluorescence at 100 uM relative to 4-methylumbelliferone. Format: physicochemical.
Series [7] can be described thus: Induction of fluorescence quenching at 100 uM relative to 4-methylumbelliferone. Format: physicochemical.

The source made the active and inactive calls. The rule behind the calls is not given here. Where only a bound is given, the exact number is not on record here.

What is called CC50 is the concentration giving 50% cytotoxicity. High values mean lower toxicity to the cells, low ones greater toxicity to the cells. Consider `CC(C)=CCc1c(O)ccc(C(=O)/C=C/c2cc(O)c3c(c2)C=CC(C)(C)O3)c1O`, for which the “inhibition (INH)” value worked out at 29.7% in the series on Influenza A virus [1] and 48.1% with Influenza A virus [2]. The compound also displayed a CC50 at 72 h in series [3] of 135 µM.

As a reminder, the inhibition is the change of the read-out against control, counted positive when it falls. As usually defined, the IC50 is the midpoint of a concentration-inhibition curve. For the compound `CC1(C)C=Cc2c(ccc3c2OCC(O)C3)O1` (configuration not stated), the inhibition at 50 µM in the series on Influenza A virus [1] worked out at 36.1%. Also, the results for the IC50 in series [4] and in series [5] were 2.88 µM and 0.64 µM, respectively. Also, the inhibition result with Influenza A virus [2] was “inactive”. Further, the values for the Activity in series [6] and in series [7] were 0% and 15%, respectively. In series [3], this compound had a CC50 at 72 h of 336 µM.

As for `O=C(/C=C/c1ccc(O)cc1)OC[C@]1(O)CO[C@H](O[C@H]2[C@H](Oc3ccc(/C=C/C(=O)c4ccc(O)cc4O)cc3)O[C@H](CO)[C@@H](O)[C@@H]2O)[C@H]1O`, the inhibition result with Influenza A virus [1] and in the series with Influenza A virus [2] was “inactive” throughout.

Turning to `O=C1C[C@@H](c2ccc(O[C@@H]3O[C@H](CO)[C@@H](O)[C@H](O)[C@H]3O[C@H]3OC[C@@](O)(COC(=O)c4c[nH]c5ccccc45)[C@@H]3O)cc2)Oc2cc(O)ccc21`, the inhibition entry in the series on Influenza A virus [1] and in the series on Influenza A virus [2] was “inactive” in each case.

For the compound `COc1ccc(-c2coc3cc(O)ccc3c2=O)cc1` [FORMONONETIN], the IC50 in series [4] came to 13.6 µM; in series [5], 0.34 µM. Besides, the figures for the Activity in series [6] and in series [7] were 15.4% and -12.4%, respectively. Besides, in series [3], the CC50 at 72 h was 123 µM.

Regarding `CC(C)=CCc1cc([C@@H]2CC(=O)c3ccc(O)c(CC=C(C)C)c3O2)ccc1O` [GLABROL], the inhibition entry with Influenza A virus [1] and with Influenza A virus [2] was “inactive” each time. The figures for the IC50 in series [4] and in series [5] were 2.17 µM and 0.13 µM, respectively. Moreover, the results for the Activity in series [6] and in series [7] were 1.18% and 37.4%, respectively. The compound also yielded a CC50 at 72 h in series [3] of 25.4 µM.

For the compound `CC1(C)C=Cc2c(ccc(-c3coc4cc(O)ccc4c3=O)c2O)O1` [GLABRONE], the IC50 stood at 11.7 µM in series [4] and 0.07 µM in series [5]. In the series on Influenza A virus [2], the inhibition at 50 µM is 24.2%. The Activity was determined as 0.68% in series [6] and 28.3% in series [7]. In series [3], this compound had a half-maximal cytotoxic concentration (CC50) at 72 h of 90.8 µM.

With `CC1(C)C=Cc2c(ccc([C@@H]3COc4c(ccc5c4C=CC(C)(C)O5)C3)c2O)O1` [HISPAGLABRIDIN B], the inhibition at 50 µM in the series with Influenza A virus [1] was found to be 48.4%; in the series with Influenza A virus [2] it was 31.2%. In addition, the figures for the IC50 in series [4] and in series [5] were 4.23 µM and 0.17 µM, respectively. In addition, the values for the Activity in series [6] and in series [7] were 0.05% and 15.1%, respectively. In series [3], the CC50 at 72 h stood at 39.2 µM.

`O=C1C[C@@H](c2ccc(O[C@@H]3O[C@H](CO)[C@@H](O)[C@H](O)[C@H]3O)cc2)Oc2cc(O)ccc21` [LIQUIRITIN]: the inhibition entry with Influenza A virus [1] and with Influenza A virus [2] was “inactive” in each case. Moreover, the CC50 at 72 h in series [3] is > 239 µM.

On to `O=C1C[C@@H](c2ccc(O)cc2)Oc2cc(O)ccc21` [LIQUIRTIGENIN], for which the inhibition result in the series on Influenza A virus [1] and with Influenza A virus [2] was “inactive” each time. The compound further displayed a CC50 at 72 h in series [3] of 301 µM.

For `CCOC(=O)C1=C[C@@H](OC(CC)CC)[C@H](NC(C)=O)[C@@H](N)C1` [OSELTAMIVIR], the values for the half-inhibitory concentration (IC50) in series [4] and in series [5] were 125 µM and 110 µM, respectively. Further, the Activity is 0.05% in series [6] and 12.8% in series [7].

Consider `O=C1C[C@@H](c2ccc(O)cc2)Oc2cc(O[C@@H]3O[C@H](CO)[C@@H](O)[C@H](O)[C@H]3O)cc(O)c21` [PRUNIN], for which the “inhibition (INH)” value in the series with Influenza A virus [1] turned out to be 49.6%. Besides, in the series on Influenza A virus [2], the inhibition result is “inactive”. In addition, the CC50 at 72 h in series [3] worked out at 126 µM.
